The values below come from US12421252B2, “Spiro (isobenzofuranazetidine) compounds for the treatment of autoimmune disease” (Hoffmann-La Roche Inc., priority 2020, dated 2025).

Structures are written as SMILES.

For one data set, the target named is T1, hERG channel (Homo sapiens, UniProt Q12809).
T1 construct: expressed in transfected cells
Briefly: hERG channel inhibition assay (patch-clamp, CHO hERG cells). Type of data set: cell-based. To be noted: CHO hERG cells, whole-cell patch-clamp; for IC20: human, CHO cells stably expressing hERG. The procedure: hERG Channel Inhibition Assay:
The hERG K+ channels were cloned in humans and stably expressed in a CHO (Chinese hamster ovary) cell line. CHOhERG cells were used for patch-clamp (voltage-clamp, whole-cell) experiments. Cells were stimulated by a voltage pattern to activate hERG channels and conduct IKhERG Currents (rapid delayed outward rectifier potassium current of the hERG channel). After the cells were stabilized for a few minutes, the amplitude and kinetics of IKhERG were recorded at a stimulation frequency of 0.1 Hz, (6 bpm). Thereafter, the test compound was added to the preparation at increasing concentrations. For each concentration, an attempt was made to reach a steady-state effect, usually, this was achieved within 3-10 min at which time the next highest concentration was applied. The amplitude and kinetics of IKhERG are recorded in each concentration of the drug which were compared to the control values (taken as 100%). (references: Redfern W S, Carlsson L, Davis A S, Lynch W G, MacKenzie I, Palethorpe S, Siegl P K, Strang I, Sullivan A T, Wallis R, Camm A J, Hammond T G. 2003; Relationships between preclinical cardiac electrophysiology, clinical QT interval prolongation and torsade de pointes for a broad range of drugs: evidence for a provisional safety margin in drug development. Cardiovasc. Res. 58:32-45, Sanguinetti M C, Tristani-Firouzi M. 2006; hERG potassium channels and cardiac arrhythmia. Nature 440:463-469, Webster R, Leishman D, Walker D. 2002; Towards a drug concentration effect relationship for QT prolongation and torsades de pointes. Curr. Opin. Drug Discov. Devel. 5:116-26).
(In general: hERG is a cardiac potassium channel; its block is linked to QT prolongation.)

The target of a further data set is T2, CYP2C9 (Homo sapiens, UniProt P11712).
T2 construct: tissue BD-Gentest 452117; host or cells: human liver microsomes
The experiment in a line: CYP inhibition assay in human liver microsome, CYP2C9. Type of data set: in vitro ADME. The note with it: percentage inhibition, substrate Diclofenac 5 μM, <0: not or weak inhibitor. As for the experimental part:
(§1) This is a high throughput screening assay used for assessment of reversible inhibition of CYP2C9, CYP2D6, and CYP3A4 activity of test compounds in human liver microsome (HLM) in early discovery stage.
(§2) Procedure 10 mM DMSO stock solutions of test compounds were diluted in DMSO to generate 2 mM intermediate stock solution. 250 nL of intermediate stock solution were transferred in duplicate into 3 separate 384 well microtitre plates (assay-ready plates). A mixture of HLM and each substrate was made up. 45 μL of HLM substrate mix was then transferred to each well of an assay ready plate and mixed. The negative (solvent) and positive controls (standard inhibitor for each CYP) were included in each assay ready plate. The assay ready plate was warmed to 37° C. in an incubator over 10 minutes. 5 μL pre-warmed NADPH regenerating system was added to each incubation well to start the reaction. Final incubation volume was 50 μL. The assay plate then was placed back in the 37° C. incubator. After incubation (10 minutes for CYP2D6) for 5 minutes, incubates were quenched by addition of 50 μL 100% acetonitrile containing internal standards (400 ng/mL 13C6-4′-OH-Diclofenac, 20 ng/mL D3-Dextrorphan and 20 ng/mL D4-1′OH-Midazolam). The supernatants were collected for RapidFire/MS/MS analysis.
(§3) RapidFire online solid phase extraction/sample injection system (Agilent) coupled with API4000 triple quadrupole mass spectrometer (AB Sciex) were used for sample analysis. The mobile phase composed of acetonitrile and water supplemented with 0.1% formic acid. A C4 solid phase extraction cartridge is used for sample separation. MS detection is achieved in positive ion MRM mode.
(§4) Data analysis Peak areas for substrate, metabolite and internal standard are determined using the RapidFire integrator software (version 3.6.12009.12296). Peak area ratios (PAR) of metabolite and internal standard (stable-labelled metabolite) are then calculated. The measurement window for each experiment is then defined: PAR (0% activity)=average PAR for all incubations containing concentrated inhibitor; Par (100% activity)=average PAR for all incubations containing no inhibitor (DMSO controls); % Activity (test inhibitor)=[PAR (test inhibitor)-PAR (0% activity)]/[PAR (100% activity)-PAR (0% activity)]; % Inhibition (test inhibitor)=100-% Activity (test inhibitor).

Another data set has as its target T3, CYP2D6 (Homo sapiens, UniProt P10635).
T3 construct: tissue BD-Gentest 452117; host or cells: human liver microsomes
The experiment in a line: CYP inhibition assay in human liver microsome, CYP2D6. Type of data set: in vitro ADME. To be noted: percentage inhibition, substrate Dextromethorphan 5 μM, <0: not or weak inhibitor. The procedure:
as §1, §2, §3, §4
In general terms: Liver microsomes are a subcellular fraction often used to study metabolism.

For another data set, the target named is T4, CYP3A4 (Homo sapiens, UniProt P08684).
T4 construct: tissue BD-Gentest 452117; host or cells: human liver microsomes
The experiment in a line: CYP inhibition assay in human liver microsome, CYP3A4. Type of data set: in vitro ADME. To be noted: percentage inhibition, substrate Midazolam 5 μM, <0: not or weak inhibitor. As for the experimental part:
as §1, §2, §3, §4

The target in a further data set is T5, hTLR9 (Homo sapiens, UniProt Q9NR96).
T5 sequence (Q9NR96 26-1032): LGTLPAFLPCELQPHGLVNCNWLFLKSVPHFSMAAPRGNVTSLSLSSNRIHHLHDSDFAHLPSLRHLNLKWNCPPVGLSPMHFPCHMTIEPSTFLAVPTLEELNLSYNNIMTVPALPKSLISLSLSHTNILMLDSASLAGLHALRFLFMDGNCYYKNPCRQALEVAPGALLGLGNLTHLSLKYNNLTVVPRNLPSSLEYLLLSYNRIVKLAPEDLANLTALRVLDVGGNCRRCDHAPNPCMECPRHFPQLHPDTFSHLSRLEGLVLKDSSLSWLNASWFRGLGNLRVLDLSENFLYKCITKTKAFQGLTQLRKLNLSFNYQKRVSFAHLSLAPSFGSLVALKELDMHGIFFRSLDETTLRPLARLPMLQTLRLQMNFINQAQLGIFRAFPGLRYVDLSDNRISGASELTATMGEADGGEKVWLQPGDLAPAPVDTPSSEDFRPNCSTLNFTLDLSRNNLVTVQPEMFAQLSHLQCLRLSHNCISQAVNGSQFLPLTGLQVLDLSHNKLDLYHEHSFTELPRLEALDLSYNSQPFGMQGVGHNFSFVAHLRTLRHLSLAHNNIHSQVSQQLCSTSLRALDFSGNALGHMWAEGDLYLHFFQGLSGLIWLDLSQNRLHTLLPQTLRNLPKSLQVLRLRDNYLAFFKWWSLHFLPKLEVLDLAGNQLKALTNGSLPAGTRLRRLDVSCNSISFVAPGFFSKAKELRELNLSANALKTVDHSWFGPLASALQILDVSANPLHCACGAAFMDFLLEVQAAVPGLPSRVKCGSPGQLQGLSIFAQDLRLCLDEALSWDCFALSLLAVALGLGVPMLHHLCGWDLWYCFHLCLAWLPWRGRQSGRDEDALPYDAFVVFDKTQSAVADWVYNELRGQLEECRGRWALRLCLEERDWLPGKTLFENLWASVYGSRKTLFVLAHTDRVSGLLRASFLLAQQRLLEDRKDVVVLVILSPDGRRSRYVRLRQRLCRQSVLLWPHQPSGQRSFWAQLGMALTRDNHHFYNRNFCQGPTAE
On the set-up: host or cells: HEK. To be noted: data disclosed in US20150105370; read-out: HEK/hTLR9 IC50; cited from earlier work.

The target of a further data set is T6, human TLR8 (Homo sapiens, UniProt Q9NR97).
T6 sequence (Q9NR97 27-1041): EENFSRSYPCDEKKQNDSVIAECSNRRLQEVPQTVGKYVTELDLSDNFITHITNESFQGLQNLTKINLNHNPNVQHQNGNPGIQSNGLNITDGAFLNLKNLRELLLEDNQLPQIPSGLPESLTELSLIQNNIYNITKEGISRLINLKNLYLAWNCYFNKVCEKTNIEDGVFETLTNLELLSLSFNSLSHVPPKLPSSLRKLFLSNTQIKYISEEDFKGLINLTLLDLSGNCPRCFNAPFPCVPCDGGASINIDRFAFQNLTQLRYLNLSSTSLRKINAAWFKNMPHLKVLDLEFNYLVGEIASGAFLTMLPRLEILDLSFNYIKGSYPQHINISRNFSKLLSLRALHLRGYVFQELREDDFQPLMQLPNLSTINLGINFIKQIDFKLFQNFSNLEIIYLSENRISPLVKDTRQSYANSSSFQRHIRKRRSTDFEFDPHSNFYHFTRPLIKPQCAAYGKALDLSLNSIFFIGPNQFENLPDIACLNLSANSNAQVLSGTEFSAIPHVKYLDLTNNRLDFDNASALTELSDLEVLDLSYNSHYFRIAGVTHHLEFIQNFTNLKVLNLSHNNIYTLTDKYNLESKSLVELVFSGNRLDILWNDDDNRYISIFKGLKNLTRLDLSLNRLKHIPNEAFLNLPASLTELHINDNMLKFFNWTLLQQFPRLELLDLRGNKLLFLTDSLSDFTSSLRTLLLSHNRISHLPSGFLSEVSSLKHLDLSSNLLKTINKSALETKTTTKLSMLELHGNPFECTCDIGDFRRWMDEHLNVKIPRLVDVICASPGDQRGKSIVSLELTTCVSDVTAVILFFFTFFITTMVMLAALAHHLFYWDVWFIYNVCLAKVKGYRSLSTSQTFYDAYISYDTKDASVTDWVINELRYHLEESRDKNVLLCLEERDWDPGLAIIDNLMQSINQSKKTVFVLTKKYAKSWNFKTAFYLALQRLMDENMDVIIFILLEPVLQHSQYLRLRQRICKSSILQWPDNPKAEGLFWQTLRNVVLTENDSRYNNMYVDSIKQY
Briefly: HEK293-Blue-hTLR-8 cells assay. Type of data set: cell-based. The note with it: HEK293-Blue-hTLR8 cells, R848 stimulation, 20 hrs, SEAP reporter; read-out: HEK/hTLR8 IC50. An excerpt: HEK293-Blue-hTLR-8 cells assay:
A stable HEK293-Blue-hTLR-8 cell line was purchased from InvivoGen (Cat. #: hkb-htlr8, San Diego, California, USA). These cells were originally designed for studying the stimulation of human TLR8 by monitoring the activation of NF-κB. A SEAP (secreted embryonic alkaline phosphatase) reporter gene was placed under the control of the IFN-β minimal promoter fused to five NF-κB and AP-1-binding sites. The SEAP was induced by activating NF-κB and AP-1 via stimulating HEK-Blue hTLR8 cells with TLR8 ligands. Therefore the reporter expression was declined by TLR8 antagonist under the stimulation of a ligand, such as R848, for incubation of 20 hrs. The cell culture supernatant SEAP reporter activity was determined using QUANTI-Blue™kit (Cat. #: rep-qb1, Invivogen, San Diego, Ca, USA) at a wavelength of 640 nm, a detection medium that turns purple or blue in the presence of alkaline phosphatase.
HEK293-Blue-hTLR8 cells were incubated at a density of 250,000˜450,000 cells/mL in a volume of 170 μL in a 96-well plate in Dulbecco's Modified Eagle's medium (DMEM) containing 4.5 g/L glucose, 50 U/mL penicillin, […], […], 2 mM L-glutamine, 10% (v/v) heat-inactivated fetal bovine serum with addition of 20 μL test compound in a serial dilution in the presence of final DMSO at 1% and 10 μL of 60 uM R848 in above DMEM, perform incubation under 37° C. in a CO2 incubator for 20 hrs. Then 20 μL of the supernatant from each well was incubated with 180 μL Quanti-blue substrate solution at 37° C. for 2 hrs and the absorbance was read at 620-655 nm using a spectrophotometer. The signaling pathway that TLR8 activation leads to downstream NF-κB activation has been widely accepted, and therefore similar reporter assay was modified for evaluating TLR8 antagonist.

As usually defined, the IC20 is the concentration at which the effect reaches the 20% level. A high value points to weaker potency.

T1 sequence (Q12809 whole entry): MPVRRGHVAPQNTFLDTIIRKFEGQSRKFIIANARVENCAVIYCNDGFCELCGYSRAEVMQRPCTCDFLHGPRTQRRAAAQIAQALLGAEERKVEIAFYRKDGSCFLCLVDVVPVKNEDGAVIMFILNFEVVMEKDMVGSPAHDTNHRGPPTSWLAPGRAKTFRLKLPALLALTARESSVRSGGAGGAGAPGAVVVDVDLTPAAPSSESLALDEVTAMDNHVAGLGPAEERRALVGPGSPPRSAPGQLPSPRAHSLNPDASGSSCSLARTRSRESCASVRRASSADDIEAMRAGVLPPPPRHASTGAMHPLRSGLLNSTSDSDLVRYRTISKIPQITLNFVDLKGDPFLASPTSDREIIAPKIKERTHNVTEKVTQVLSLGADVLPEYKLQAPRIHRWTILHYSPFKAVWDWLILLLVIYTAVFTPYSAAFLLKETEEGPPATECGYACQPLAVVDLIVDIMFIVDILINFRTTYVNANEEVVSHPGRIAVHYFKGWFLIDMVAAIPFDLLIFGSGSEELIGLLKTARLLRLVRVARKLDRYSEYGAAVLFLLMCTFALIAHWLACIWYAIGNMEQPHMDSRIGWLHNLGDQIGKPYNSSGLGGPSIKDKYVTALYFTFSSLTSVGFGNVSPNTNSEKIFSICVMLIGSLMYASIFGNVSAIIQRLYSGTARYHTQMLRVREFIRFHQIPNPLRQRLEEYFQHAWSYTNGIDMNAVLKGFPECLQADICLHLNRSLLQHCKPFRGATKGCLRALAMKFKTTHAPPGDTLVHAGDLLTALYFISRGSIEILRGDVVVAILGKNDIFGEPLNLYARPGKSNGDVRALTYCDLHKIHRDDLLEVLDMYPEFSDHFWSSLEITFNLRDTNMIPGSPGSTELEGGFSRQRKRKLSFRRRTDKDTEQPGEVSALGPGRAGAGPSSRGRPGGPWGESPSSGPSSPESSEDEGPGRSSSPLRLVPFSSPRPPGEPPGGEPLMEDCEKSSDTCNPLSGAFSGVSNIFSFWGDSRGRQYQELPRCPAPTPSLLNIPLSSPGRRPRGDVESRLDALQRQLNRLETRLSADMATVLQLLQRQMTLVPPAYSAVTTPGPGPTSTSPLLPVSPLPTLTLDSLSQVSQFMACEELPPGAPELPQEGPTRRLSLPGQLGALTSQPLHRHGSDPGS
T2 sequence (P11712 whole entry): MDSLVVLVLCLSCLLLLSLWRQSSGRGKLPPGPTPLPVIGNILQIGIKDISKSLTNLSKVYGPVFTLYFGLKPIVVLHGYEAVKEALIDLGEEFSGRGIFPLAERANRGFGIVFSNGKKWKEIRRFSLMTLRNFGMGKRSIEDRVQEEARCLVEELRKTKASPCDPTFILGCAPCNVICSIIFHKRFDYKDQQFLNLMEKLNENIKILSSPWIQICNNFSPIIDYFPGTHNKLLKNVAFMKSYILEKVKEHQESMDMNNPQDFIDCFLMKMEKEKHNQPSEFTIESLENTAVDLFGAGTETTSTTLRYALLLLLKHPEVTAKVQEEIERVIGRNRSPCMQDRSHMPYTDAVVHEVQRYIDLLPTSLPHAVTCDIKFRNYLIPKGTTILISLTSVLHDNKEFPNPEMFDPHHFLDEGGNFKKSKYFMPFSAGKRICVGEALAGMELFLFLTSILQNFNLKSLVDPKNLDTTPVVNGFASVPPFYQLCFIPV
T4 sequence (P08684 whole entry): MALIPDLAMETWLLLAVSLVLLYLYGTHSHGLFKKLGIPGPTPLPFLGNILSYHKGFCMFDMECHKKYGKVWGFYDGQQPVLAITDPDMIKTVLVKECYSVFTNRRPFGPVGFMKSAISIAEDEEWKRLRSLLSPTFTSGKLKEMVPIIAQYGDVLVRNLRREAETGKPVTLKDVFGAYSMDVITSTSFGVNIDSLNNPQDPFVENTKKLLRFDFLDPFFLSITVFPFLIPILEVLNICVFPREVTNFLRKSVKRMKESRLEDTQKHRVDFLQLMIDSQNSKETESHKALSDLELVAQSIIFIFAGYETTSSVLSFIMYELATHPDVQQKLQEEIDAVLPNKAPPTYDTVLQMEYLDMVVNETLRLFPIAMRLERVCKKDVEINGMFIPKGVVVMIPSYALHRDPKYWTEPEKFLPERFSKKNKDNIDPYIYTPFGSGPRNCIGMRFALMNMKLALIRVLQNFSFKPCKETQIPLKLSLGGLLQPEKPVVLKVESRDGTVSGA
T3 sequence (P10635 whole entry): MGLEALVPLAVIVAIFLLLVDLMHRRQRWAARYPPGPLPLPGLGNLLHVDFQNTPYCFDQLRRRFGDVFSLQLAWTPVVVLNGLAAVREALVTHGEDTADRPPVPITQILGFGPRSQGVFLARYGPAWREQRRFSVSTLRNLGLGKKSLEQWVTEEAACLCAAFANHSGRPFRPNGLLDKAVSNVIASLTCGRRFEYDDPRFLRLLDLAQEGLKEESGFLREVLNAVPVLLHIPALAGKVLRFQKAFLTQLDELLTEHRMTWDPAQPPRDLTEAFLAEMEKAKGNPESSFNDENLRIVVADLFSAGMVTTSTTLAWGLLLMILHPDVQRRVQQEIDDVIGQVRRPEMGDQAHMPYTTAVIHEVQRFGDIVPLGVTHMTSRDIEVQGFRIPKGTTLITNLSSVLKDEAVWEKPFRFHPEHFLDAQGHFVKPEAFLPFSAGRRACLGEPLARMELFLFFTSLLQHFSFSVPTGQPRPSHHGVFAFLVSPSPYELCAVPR

Regarding `[2H]c1ccc2c(N3C[C@H](CN4CC5(C4)OCc4cc(N6CC(C)(N)C6)ccc45)O[C@H](C)C3)ccc(C#N)c2n1` [Example 11, 5-[(2S,6R)-2-[[6-(3-amino-3-methyl-azetidin-1-yl)spiro[1H-isobenzofuran-3,3′-azetidine]-1′-yl]methyl]-6-methyl-morpholin-4-yl]-2-deuterio-quinoline-8-carbonitrile], at hERG channel, the IC50 was more than 20 µM and the IC20 is 6.2 µM. Further, the “CYP (%) 2C9” value on CYP2C9 was found to be 4%. For the same compound, at CYP2D6, the “CYP (%) 2D6” value turned out to be 5.5%. In addition, the “CYP (%) 3A4” value at CYP3A4 worked out at 12%.

Take `C[C@@H]1CN(c2ccc(C#N)c3ncccc23)C[C@H](CN2CC(NS(=O)(=O)c3ccc(F)cc3)C2)O1` [ER-894155]: the IC50 on hTLR9 was more than 10 µM.

For `[2H]c1ccc2c(N3C[C@H](CN4CC5(C4)OCc4cc(N6CC7(CNCCO7)C6)ccc45)O[C@H](C)C3)ccc(C#N)c2n1` [Example 15, 2-deuterio-5-[(2R,6S)-2-methyl-6-[[6-(5-oxa-2,8-diazaspiro[3.5]nonan-2-yl)spiro[1H-isobenzofuran-3,3′-azetidine]-1′-yl]methyl]morpholin-4-yl]quinoline-8-carbonitrile], at human TLR8, the IC50 was 9 nM.

`Cc1nn(C)cc1S(=O)(=O)NC1CCN(C[C@H]2CN(c3ccc(C#N)c4ncccc34)C[C@@H](C)O2)CC1` [ER-894160]: the IC50 at hTLR9 is more than 10 µM.

In the case of `C[C@@H]1CN(c2ccc(C#N)n3nccc23)C[C@H](CN2CC3(C2)OCc2cc(N4CC5(CN(C)C5)C4)ccc23)O1` [Example 8, 4-[(2R,6S)-2-methyl-6-[[6-(6-methyl-2,6-diazaspiro[3.3]heptan-2-yl)spiro[1H-isobenzofuran-3,3′-azetidine]-1′-yl]methyl]morpholin-4-yl]pyrazolo[1,5-a]pyridine-7-carbonitrile], the “CYP (%) 2C9” value at CYP2C9 is −8.5%. For the same compound, the “CYP (%) 2D6” value on CYP2D6 was found to be 5%. Further, at CYP3A4, the “CYP (%) 3A4” value is reported as −8.5%.

As for `[2H]c1ccc2c(N3C[C@H](CN4CC5(C4)OCc4cc(N6CC(N)C6)ccc45)O[C@H](C)C3)ccc(C#N)c2n1` [Example 14, 5-[(2S,6R)-2-[[6-(3-aminoazetidin-1-yl)spiro[1H-isobenzofuran-3,3′-azetidine]-1′-yl]methyl]-6-methyl-morpholin-4-yl]-2-deuterio-quinoline-8-carbonitrile], at hERG channel, the IC50 was more than 20 µM and the 20% effect concentration (IC20) is more than 10 µM.
